Assay results: patent publication US20010001101A1, “Phenanthroline derivatives” (Zeneca Limited, priority 1997, published 2001)

Experiments:
[1] = test system: scar tissue in the brain following injury; assay: brain injury model; format: in vivo, rat; details: oral gavage twice daily day 0 to 14, day 14
Description: (§1) (f) Various in vivo animal models to determine the applicability of utilizing the compounds of the present invention to treat fibrotic disorders specific to certain cell types or organs. For example, a cardiac fibrosis model in rats, as generally described in Kondo et al., Cardiovascu. Res. 21:248-254 (1987), and Benjamin et al., Circulation Res. 65(3):657-670 (1989), may be used to measure the effectiveness of the compounds of the present invention to inhibit cardiac fibrosis, as well as provide evidence of the regeneration of cardiac cells upon inhibition of fibrotic cell proliferation. Similarly, the left carotid artery injury model, as described generally in Clowes et al., Lab Invest. 49:327-33 (1983), Muller et al., Am. Col. Cardio. 19(2):418 (1992), and Jackson, Trends Cardiovasc. Med. 4:122-130 (1994), may be used to determine the effectiveness of the compounds of the instant invention in vascular remodeling. […]

[2] = test system: balloon injured carotid arteries; assay: rat restenosis model (balloon carotid artery injury); format: in vivo; details: 50 mg/kg oral gavage twice daily day 0-14; day 14
Description: as §1
The effectiveness of Compound 12 in vascular remodeling, as determined in a rat restenosis model, was determined by using a left carotid artery injury rat model, as generally described above. […]

[3] = test system: kidney fibrosis after Adriamycin injection; assay: kidney fibrosis rat model (Adriamycin); format: in vivo
Description: (f) Various in vivo animal models to determine the applicability of utilizing the compounds of the present invention to treat fibrotic disorders specific to certain cell types or organs. For example, a cardiac fibrosis model in rats, as generally described in Kondo et al., Cardiovascu. Res. 21:248-254 (1987), and Benjamin et al., Circulation Res. 65(3):657-670 (1989), may be used to measure the effectiveness of the compounds of the present invention to inhibit cardiac fibrosis, as well as provide evidence of the regeneration of cardiac cells upon inhibition of fibrotic cell proliferation. Similarly, the left carotid artery injury model, as described generally in Clowes et al., Lab Invest. 49:327-33 (1983), Muller et al., Am. Col. Cardio. 19(2):418 (1992), and Jackson, Trends Cardiovasc. Med. 4:122-130 (1994), may be used to determine the effectiveness of the compounds of the instant invention in vascular remodeling. Other models, such as in vivo brain injury models (see e.g., Berry et al., Acto Neurochrurgica, Suppl., 32:31-53 (1993), Logan et al., Brain Research 587:216-255 (1992)), in vivo kidney fibrosis models (see e.g., DiDonato et al., Nephron 76(2):192-200 (1997), in vivo post-surgical abdominal adhesions model (see e.g., Cohen et al., J. Trauma 30(12):S149-154 (1990), Stein & Keiser, J. Surg. Res. 11:277 (1971), Diegelman et al., J. Surg. Res. 19:239-43 (1975)) may be used to determine the effectiveness of the compounds of the instant invention to treat fibrotic disorders related to the brain, kidney, abdomen and dermis, as well as provide information related to the treatment of other major organs.
The effectiveness of the compounds of the instant invention to treat kidney fibrosis was determined using a kidney fibrosis rat model, as generally described above. More specifically, male SD rats weighing approximately 200-225 g each were injected intravenously with Adriamycin (Pharmacia, MI) on day 1 and again on day 15. The Adriamycin was dissolved in 0.5 ml sterile physiologic saline and infused slowly into the tail vein to ensure complete delivery and to avoid perivascular tissue destruction of the drug.
Three treatment groups were established following Adriamycin injections. The rats were randomly assigned to receive a twice daily gavage of Compound 12 or control (1% CMC). Five animals from each group were sacrificed on week 6, 8 or 12.

[4] = test system: granulation tissue in wound chamber; assay: in vivo wound chamber model; set-up: species or system rat
Protocol: (e) An in vivo wound chamber model involving the measurement of histological changes in granulation tissue. The test compounds were tested in rats according to the procedures generally described in Schilling et al., Surgery 46(4):702-710 (1959), Hunt et al., Am. J. Surgery 114:302-307 (1967), and Grotendorst et al., J. Clin Inves. 76:2323-2329 (1985). More specifically, stainless wire mesh cylinders were implanted subcutaneously under the back skin of rats (two chambers per animal). The compounds of the present invention were then dissolved in DMSO and injected into each chamber on a daily basis at various concentrations from either day 0-14 or day 7-14. On day 14, the chambers were collected and the granulation tissues contained within the chambers were collected for biochemical (collagen content) or histological evaluation.
Following the in vivo wound chamber model described above, fourteen of the claimed compounds tested to determine the effectiveness of the claimed compounds in inhibiting collagen deposition in the wound chamber.

[5] = test system: isoproterenol-induced myocardial fibrosis; assay: rat isoproterenol-induced myocardial fibrosis model; format: in vivo; details: left ventricular function at week 6; 50 mg/kg oral gavage twice daily day 4 to day 11
Description: as §1, with “Col.” for “Col. Cardio. 19(2):418 (1992), and Jackson, Trends Cardiovasc. Med. 4:122-130 (1994), may be used to determine the effectiveness of the compounds of the instant invention in vascular remodeling.”
The effectiveness of one of the compounds of the present invention to inhibit cardiac fibrosis and permit the regeneration of cardiac cells was tested in the cardiac fibrosis model generally described above. […] The compound was administered after suspension in 1% CMC at 50 mg/kg by oral gavage twice daily from day 4 to day 11 and histological data was evaluated on day 11 by general histology (H&E and trichrome) and immunohistochemical staining for proliferating cell nuclear antigen (PCNA). Cardiac function (left ventricular function) was measured by inserting a catheter into the left ventricle for measurement of relaxation and contraction pressure on week 6.

[6] = test system: dermal punch wound; assay: dermal wound healing, rat punch model; format: in vivo; details: compared to control
Protocol: FIG. 5 illustrates wound area after treatment of Compound 3 in the dermal punch model.
(§2) The effectiveness of the compounds in dermal wound healing was tested using two wound healing models—rat punch model and rat incisional model—as described above.

[7] = test system: dermal incisional wound; assay: dermal wound healing, rat incisional model; format: in vivo; details: compared to control
Protocol: FIG. 6 illustrates the tensile strength on dermal incisional wound on day 7 after oral treatment of Compound 3 and Compound 12.
FIG. 7 illustrates the tensile strength of incisional wound after local injections of Compound 12.
as §2

[8] = target: T1, prolyl 4-hydroxylase (Gallus gallus, UniProt P16924); assay: in vitro enzyme assay, cell free, highly purified prolyl 4-hydroxylase (test (a)); format: biochemical
T1 construct: a highly purified preparation of prolyl 4-hydroxylase; from tissue; chick embryos according to the cited method (own knowledge)
T1 sequence (P16924 1-516): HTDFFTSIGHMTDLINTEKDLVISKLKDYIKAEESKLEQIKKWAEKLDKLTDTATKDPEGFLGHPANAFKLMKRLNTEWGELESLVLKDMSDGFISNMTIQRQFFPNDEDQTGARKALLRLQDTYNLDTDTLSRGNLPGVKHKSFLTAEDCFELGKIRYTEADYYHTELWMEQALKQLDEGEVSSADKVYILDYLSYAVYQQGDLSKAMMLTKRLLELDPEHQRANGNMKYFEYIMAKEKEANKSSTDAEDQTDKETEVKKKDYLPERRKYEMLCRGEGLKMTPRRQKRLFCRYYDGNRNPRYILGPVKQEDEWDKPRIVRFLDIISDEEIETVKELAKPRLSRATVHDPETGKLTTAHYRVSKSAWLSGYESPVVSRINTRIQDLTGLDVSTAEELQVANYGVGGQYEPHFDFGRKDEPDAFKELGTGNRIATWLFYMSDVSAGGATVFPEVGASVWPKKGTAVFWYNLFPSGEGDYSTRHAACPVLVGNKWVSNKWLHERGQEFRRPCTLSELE
T1 sequence (P09102 23-515 partner): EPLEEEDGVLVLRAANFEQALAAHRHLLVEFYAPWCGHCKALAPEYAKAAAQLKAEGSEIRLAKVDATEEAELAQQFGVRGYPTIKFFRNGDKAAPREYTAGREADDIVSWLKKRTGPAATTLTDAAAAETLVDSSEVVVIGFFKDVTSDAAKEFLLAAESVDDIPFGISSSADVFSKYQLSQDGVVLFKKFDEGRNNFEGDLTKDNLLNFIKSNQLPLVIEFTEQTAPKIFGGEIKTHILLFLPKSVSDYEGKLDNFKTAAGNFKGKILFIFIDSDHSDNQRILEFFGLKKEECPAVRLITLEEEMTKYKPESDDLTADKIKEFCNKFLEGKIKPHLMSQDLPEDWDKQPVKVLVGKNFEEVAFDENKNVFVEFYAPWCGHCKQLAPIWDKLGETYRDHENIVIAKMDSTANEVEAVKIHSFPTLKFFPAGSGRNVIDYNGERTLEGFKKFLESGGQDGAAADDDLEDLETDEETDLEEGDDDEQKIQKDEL
Protocol: (a) An in vitro enzyme assay system, which assesses the inhibitory properties of a test compound in a cell free system using a highly purified preparation of prolyl 4-hydroxylase. The enzyme preparation was obtained using the method described by N. Kedersha and R. Berg (Collagen Related Research, 1:345 (1981)) and the activity of a test compound was measured using the method described by C. J. Cunliffe, T. J. Franklin and R. Gaskell (Biochem. J., 240:617 (1986)).

[9] = test system: embryonic chick tendon cells; assay: embryonic chick tendon cells: inhibition of hydroxylation of prolyl residues within collagen (test (b)); format: cell-based; details: Gallus gallus, hydroxylation of prolyl residues in collagen
Protocol: (b) An in vitro assay system involving incubating embryonic chick tendon cells in the presence of a test compound and measuring the inhibition of hydroxylation at the 4-position of prolyl residues within the available collagen. The embryonic chick tendon cells were prepared from the leg tendons of 17-day chick embryos using the method of P. Dehm and D. Prockop (Biochem. Biophys Acta, 240:358 (1971)). The cells were incubated in the presence of [^14C]- and [^3H]-labelled L-proline and the extent of hydroxylation at the 4-trans-position of the prolyl residues within the collagen was determined using the procedure described by T. J. Franklin and M. Hitchen (Biochem. J, 261:127-130 (1989)).

[10] = test system: 3T6 cells; assay: 3T6 cells: inhibition of hydroxylation of prolyl residues within collagen (test (c)); format: cell-based; details: hydroxylation of prolyl residues in collagen
Protocol: (c) An in vitro assay involving incubating cultures of 3T6 cells with a test compound and [^14C]- and [^3H]-labelled L-proline, and measuring the inhibition of hydroxylation at the 4-trans-position of prolyl residues within the available collagen using the procedure described by T. J. Franklin and M. Hitchen (Biochem. J., 261:127-130 (1989)).

[11] = test system: collagen within the uteri of immature female rats; assay: in vivo inhibition of prolyl hydroxylation within collagen in uteri of immature female rats (test (d)); details: Rattus norvegicus, po; 50 mg/kg orally, compound dosed 2 hours before proline administration
Protocol: (d) An in vivo assay involving the measurement of the inhibition by a test compound of hydroxylation at the 4-trans-position of prolyl residues within collagen within the uteri of immature (20-21 day) female rats. The test compounds were administered either orally or intraperitoneally to the rats in which uterine collagen synthesis had been stimulated by the subcutaneous administration of a solution of oestradiol benzoate (0.5 μg on each of two successive days) in arachis […] oil. The rats were dosed with 5 μCuries of [^14C]-L-proline and the uteri were taken 2 hours after the dosing of the radiolabelled proline and sonicated. Collagen was extracted by treatment of the tissue with water at 120° C. for 1 hour in an autoclave and hydrolysed by treatment with 6N hydrochloric acid for 18 hours at reflux temperature. The proline and 4-hydroxyproline residues were separated by column chromatography on a reversed-phase Spherisorb S5ODS1 column using as eluent a 89.9:10:0.1 v/v mixture of water:isopropanol:trifluoroacetic acid to which 0.3% w/v of sodium dodecylsulphate had been added. The ratio of radioactivity found in each of the proline and 4-hydroxyproline fractions was determined by liquid scintillation counting to allow the measurement of the inhibition of hydroxylation by a test compound.

Row | SMILES | activation of astrocytes ([1]; GFAP staining) | collagen deposition in the scar ([1]; type I collagen staining) | development of neointimal formation [2] | development of renal hypertension ([3]; twice daily gavage, versus control) | development of kidney fibrosis (histology) ([3]; twice daily gavage, versus control (1% CMC)) | Cardiac function ([3]; week 12) | long term toxicity, as measured by mean body weight and bone density ([3]; week 12) | response vs control in vivo at 0.05 mg ([4]; Rattus norvegicus, 50 μg dosage, injected into chamber daily, day 7-14 treatment, read-out: Mean Collagen content (% of Control) On Day 14) [%] | apoptotic cell numbers (positive staining of apoptotic cells) ([4]; wound chamber) | rebound of collagen accumulation after discontinuing administration ([4]; wound chamber, at higher doses) | Contraction pressure (dP/dt, mm Hg) [5] [mm Hg] | Relaxation pressure (Min-P, mm Hg) [5] [mm Hg] | healing time [6] | tensile strength of wound [7] | IC50 [8] [nM] | IC50 [9] [nM] | melting point [°C] | IC50 [10] [nM] | inhibition at 50 mg/kg [11] [%]
1 | O=C(O)C1C=Nc2c(ccc3cccnc23)C1=O (stereo not shown) [Compound 12, 3-carboxy-4-oxo-3,4-dihydro-1,10-phenanthroline] | decreased the activation of actrocytes | reduced collagen deposition in the scar | significantly reduce the development of neointimal formation | blocked the development of renal hypertension | prevented the development of kidney fibrosis | improved | not material | 80.7 | dose-dependently increased positive staining of apoptotic cells | prevented rebound of collagen accumulation | 5770 ± 95.1 | 2.7 ± 0.8 | increased healing time | reduced tensil strength |  |  |  |  | 
2 | CCCCN(CC)C(=O)c1cnc2c3c(ccc2c1)C(=O)C(C(=O)O)C=N3 (stereo not shown) [Example 2, 8-(N-butyl-N-ethylcarbamoyl)-3-carboxy-4-oxo-3,4-dihydro-1,10-phenanthroline] |  |  |  |  |  |  |  |  |  |  |  |  |  |  | 400 | 1200 | 236 to 237 | 5400 | 46
